Assay results taken from patent publication US20130053374A1, “OPHTHALMIC COMPOSITION” (priority 2010, published 2013).
In brackets after ≈: the same amount, converted by molar mass. Where two headings read alike, the source gives them in different places.

Experiments:
[1] = Solubility of CAI with Bis-MPA hyperbranched polyester or PEG combination at pH 7.4 (Experimental Example 9); assay type: physicochemical; settings: pH 7.4, 0.5% Timolol, 5% 3rd BMPA-HP
Protocol: Secondly, the effective volume of 5% (w/v) BMPA-HP solution was diluted appropriately to make up the exact concentrations described in Table 18. […] After stirring, the solution was sonicated for 5 minutes. […] The filtrates were analyzed for CAI using UPLC with the same condition as EXPERIMENTAL EXAMPLE 1.

physchem = assay type: physicochemical; settings: pH 7, aqueous with cosolvent or surfactant or cyclodextrin, thermodynamic from solid
Protocol: After allowing the suspensions to equilibrate at room temperature for additional 30 minutes, the suspension solutions were then sonicated for 10 min and finally filtered through 0.45 μm syringe filters.

[2] = cited from earlier work; for pKa (amine group): protonated secondary amine (Dorzolamide), amine (Brinzolamide); for pKa (sulfonamide group): sulfonamide (Dorzolamide), primary sulfonamide (Brinzolamide)
[3] = pH 7.4, 0.5% (w/v) Timolol, 5% (w/v) HP (Boltorn W3000)
Protocol: The emulsion was prepared by slowing dispersing water to the weighed amount of waxed Boltorn® W3000 to make 5% (w/v) emulsion with continuous stirring and heating at 60-70° C. for at least 30 minutes, followed by continuous vigorous stirring for an additional 15 hours, to obtain a homogeneous emulsion mixture in a flask.
10 mM phosphate buffer was added to the appropriately weighed mass of solid active ingredients and stirred thoroughly for 15 minutes. Secondly, the effective volume of 5% (w/v) HP emulsion solution was diluted appropriately to make up the exact concentrations described in Table 13. The sample test emulsion solutions were then stirred for 10 minutes at room temperature (with heating up to 60° C. for 5 minutes). After stirring, the emulsion solution was sonicated for 5 minutes. After allowing the complete emulsion of all the active and non-active ingredients, the pH was adjusted to 7.4 by using 1 M NaOH, and additional buffer was added to make up the exact compositions in Table 13. With the adjustment of the pH, the emulsion solutions were further equilibrated by stirring for an additional 15 hours or more at room temperature. The pH of all the sample emulsion solutions was measured again to confirm the final desired pH of 7.4.

[4] = pH-solubility of Dorzolamide with hyperbranched polymer and PEG (Experimental Example 1); assay type: physicochemical; settings: 0.1% (w/v) phosphate buffer, FIG. 1
Protocol: Similar suspensions were also prepared in aqueous solution containing different concentrations of different HP and PEG with a molecular weight of 8000. A combination of Polysorbate 80 and PEG 8000 was also attempted. The pH was measured accurately with micro-pH electrode (Thermo Scientific). The desired pH was adjusted using either 1 M NaOH or 1 M HCl. […] After allowing the suspensions to equilibrate at room temperature for an additional 30 minutes, the suspension solutions were then sonicated for 10 minutes and finally filtered through 0.45 μm syringe filters.

intact rabbit corneas [5] = test system: intact rabbit corneas
Source text: These suspension solutions were used directly as sample donor solutions for the cornea permeation study. In order to determine the solubility, the suspensions were filtered through 0.45 μm syringe filters.
Three male rabbits (New Zealand) weighing 2 to 3 kg. Immediately after sacrifice by an overdose of inhaler isoflurane, the eyes were enucleated, and the corneas were separated for use in the permeation experiments.

intact rabbit corneas [6] = settings: for enhancement of corneal permeation rate: male, New Zealand, rabbit, 180 min, pH 5.65
Protocol: The samples were filtered by 0.45 μm filter syringe. The initial concentration of both the samples was determined by UPLC analysis.
Three male rabbits (New Zealand) weighing 3-4 pounds. The age of the rabbits was 11-12 weeks. Immediately after sacrifice by an overdose of carbon dioxide gas, the eyes were enucleated, saline washed, and the corneas were separated for the use in permeation experiments. Each cornea was rinsed with freshly prepared receptor solution (Table 4) to remove excess stain. The six intact and fresh corneas were fixed between clamped donor and receptor compartments of an all glass side-by-side diffusion cell in such a way that its epithelial surface faces the donor compartment.
The corneal area available for permeation was 0.211 cm^2. The receptor compartment was filled with freshly prepared receptor solution at pH 7.2, as per the composition described in Table 4. An aliquot (5 mL) of sample #1 was placed on the two intact corneas, and the opening of the donor cells was sealed with a glass cover slip. After 10 minutes of applying sample #1, an aliquot (5 mL) of sample #2 was applied on the next two intact corneas. Again, after 10 minutes, sample #3 aliquot (5 mL) was applied on the remaining two intact corneas. The receptor fluid (5 mL in each receptor cell) was kept at constant temperature of 34° C. using constant stirring through water jacket in all the six cases. At predetermined time intervals of 10, 20, 40, 60, 80, 100, 120, 140, 160, and 180 minutes, 200 μL samples were withdrawn from the receptor solution. Thereafter, the same amount of the phosphate buffer solution was added to the receptor cell. The drug concentrations were assayed by UPLC.
At the end of the experiment, each cornea (free from adhering sclera) was weighed after soaking in de-ionized water. The wet cornea was dried overnight in oven, and reweighed. From the difference of weights, corneal hydration was calculated. […] The parameters that were calculated are as follows:

isolated rabbit cornea = settings: pH 7.4
Source text: The permeability coefficient is inversely proportional to the initial concentration of the drug in the donor solution.

intact rabbit corneas [7] = test system: intact rabbit corneas; remark: listed apart in the source
Protocol: 10 mM phosphate buffer was added to the appropriately weighed mass of the solid active ingredients, and stirred thoroughly for 15 minutes. […] The three test solutions were then stirred for 10 minutes at room temperature (with heating up to 60° C. for 5 minutes). After stirring, the solution was sonicated for 5 minutes. After allowing the complete dilution of all the active and non-active ingredients, the pH was adjusted to either 7.4 or 5.65 by using 1 M NaOH or 1 M HCl, and additional buffer was added to make up the exact compositions in the Table 15. With the adjustment of pH, the appearance was noted as per Table 14, and the formulations were further equilibrated by stirring for an additional 15 hours or more at room temperature. The pH of the all sample solutions was measured again to confirm the final desired pH. These formulations were used directly as sample donor solutions for the cornea permeation study.

[8] = Aqueous solubility of Dorzolamide in the presence of Timolol with HP, PEG, Polysorbate 80 (Experimental Example 3); assay type: physicochemical
Protocol: The final pH was adjusted to 5.65 with 1 M NaOH after addition of HP (sample 1). The combination of different molecular weight PEG and Polysorbate 80 at pH 5.65 as per Table 3 were also attempted. […] After allowing the suspensions to equilibrate at room temperature for an additional 30 minutes, the suspension solutions were then sonicated for 10 minutes and finally filtered through 0.45 μm syringe filters.

Row | solubility [1] | solubility at 30 min (physchem) [mg/mL] | solubility [3] | pH-solubility profile (aqueous solubility vs pH) [4] | diffusion coefficient on addition of HP (intact rabbit corneas [5]) | diffusion coefficient on addition of HP and Polysorbate 80 (intact rabbit corneas [6]) | enhancement of corneal permeation rate (intact rabbit corneas [6]) | cumulative amount permeated compared to the market product (isolated rabbit cornea) | diffusion coefficient on addition of HP (intact rabbit corneas [7]) | solubility thermodynamic at 30 min ([8]; aqueous buffer, thermodynamic from solid, pH 7, 10 mM phosphate buffer, no additives) [mg/mL] | cumulative amount permeated relative to the market product (isolated rabbit cornea; male, New Zealand, rabbit, 180 min) | cumulative amount permeated relative to control formulation at similar pH with no additives (intact rabbit corneas [7]; male, New Zealand, rabbit, 180 min, pH 7.4) [times] | solubility of Timolol with the addition of additives ([8]; pH 5.65 and pH 7, samples containing 0.5% w/v Timolol) | Compound | pKa (amine group) [2] | pKa (sulfonamide group) [2]
1 | about 1 % (w/v) | ~11 (≈ 28.7 mM) | about 2 % (w/v) |  |  |  |  |  |  |  |  |  |  | CCN[C@H]1CN(CCCOC)S(=O)(=O)c2sc(S(N)(=O)=O)cc21 [Brinzolamide] | 5.9 | 8.4
2 |  |  |  | reaches a bottom at pH 7 | did not change significantly | did not change significantly | 25-30% | almost comparable | did not change significantly | < 5 |  |  |  | CCN[C@H]1C[C@H](C)S(=O)(=O)c2sc(S(N)(=O)=O)cc21 [Dorzolamide] | 6.35 | 8.5
3 |  |  |  |  | did not change significantly | did not change significantly | 25-30% |  | did not change significantly |  | more than 2 times | ~2 | did not change | CC(C)(C)NC[C@H](O)COc1nsnc1N1CCOCC1 [Timolol] |  | 
